# Experimental data published in US10507212B2, “Method for use of homopiperazinium compounds in the treatment of cancer” (UNIVERSITÉ LAVAL, priority 2014, dated 2019).
# Read-outs that look alike come from different tables or passages of the source.
# Experiments:
# [1] = tested on: H82 small cell lung carcinoma; assay: Cell proliferation assay, H82 (CellTiter fluorescence); format: cell-based; settings: for IC50: Homo sapiens
# Protocol: (§1) In vitro experiments were conducted on four cancer cell lines: the A549 adenocarcinoma cell line, the H520 squamous cell carcinoma the H82 small cell lung carcinoma and Calu 3 lung adenocarcinoma. The A549 tumor cells, were plated at a density of 1.5×10^4 cells per mL and let to adhere on 96-well microplates in F12K cell culture medium enriched with 10% fetal calf serum (FCS). The H520, H82 and Calu 3 tumor cells were plated at a density of 5×10^4 cells per mL in RPMI+10% FCS. After 24 h in culture, the medium was changed and cells were exposed to ASM-024 at concentrations ranging from 10^−7M to 10^−3M (FIGS. 1A-1C). After 3 and 6 days in culture, cell growth was quantified using the MTT colorimetric assay (M2128, Sigma) at 575-690 nm or the Cell Titer fluorescence assay (G8080, Promega) at 560/590 nm.
# (§2) In an another set of experiments, a series of 16 other homopiperazinium compounds, in addition to ASM-024, were tested for their anti-proliferative effect on the four tumor cell lines described above after up to 6 days in culture at concentrations of 10^-7M to 10^-3M. (FIGS. 4A-4E) Cell growth was quantified using the MTT colorimetric assay for the A-549, H520 and Calu 3 cell lines and the CellTiter Fluorescence assay.for the H82 tumor cell line These are established method of determining viable cell number in proliferation studies.
# PC3 = assay: Anti-proliferative MTT assay, PC3; format: cell-based; settings: Homo sapiens
# Protocol: (§3) The effect of ASM-024 on the growth of MCF7, SK-BR-3, MDA-MB-231, BT-474 (mammary adenocarcinomas), SK-OV/3 (ovary adenocarcinoma), PC3 (prostate adenocarcinoma) SK-MEL-28(skin melanoma) and C6 (tumor cell glioma) was evaluated. Cells were cultured in RPMI medium and incubated with different concentrations of ASM-024. Cell proliferation was measured on days 3 and 6 by the MTT colorimetric assay. Absorbance at 576-690 nm was analyzed with a microplate reader and expressed as optical density (OD) and as a percentage of the value of corresponding untreated cells. The IC50 was determined as the drug concentration required to inhibit cell growth by 50% from a plot of percent cell viability from control untreated cells versus treated cells.
# [2] = tested on: H520 squamous cell carcinoma; assay: Cell proliferation assay, H520 (MTT); format: cell-based; settings: for IC50: Tosylate
# Protocol: as §1, §2
# SK-BR-3 = assay: Anti-proliferative MTT assay, SK-BR-3; format: cell-based; settings: Homo sapiens
# Protocol: as §3
# [3] = tested on: A549 human lung carcinoma cells; assay: In vivo antitumor assay, A549 xenograft in Balb/c nude mice (Example 29); settings: day 49; ASM-024 45 mg/kg s.c. daily day 14-38; taxol 10 mg/kg i.p. days 21, 28, 35; cisplatin 2.5 mg/kg i.p. days 28, 35
# Protocol: For the in vivo antitumor assay, A549 human lung carcinoma cells (3.5×106) in 50% F12K medium (Matrigel) were implanted subcutaneously in the flank of Balb/c nude mice (nu/nu, Charles River) and allowed to grow for 14 days. ASM-024 was administered daily by subcutaneous delivery at the dose of 45 mg/kg from day 14 to day 38 post cell inoculation. Taxol was administrated intraperitoneally at the dose of 10 mg/kg on days 21, 28 and 35. Cisplatin was administrated intraperioneally at the dose of 2.5 mg/kg on days 28 and 35. From day 14 to day 49, tumor length and width were measured once or twice a week with a caliper and tumor volume calculated according to the formula Volume=(width2×length)/2.
# BT-474 = assay: Anti-proliferative MTT assay, BT-474; format: cell-based; settings: Homo sapiens
# Protocol: as §3
# [4] = tested on: Calu 3 lung adenocarcinoma; assay: Cell proliferation assay, Calu 3 (MTT); format: cell-based; settings: Homo sapiens
# Protocol: as §1, §2
# A549 cells = assay: In vivo antitumor assay, A549 tumor cell-bearing nu/nu mice (Example 27); settings: 30 mg/kg daily, subcutaneous or intraperitoneal
# Protocol: For the in vivo antitumor assay, nu/nu mice were inoculated subcutaneously in the flank of mice with 2×10^6 A549 cells in sterile PBS mixed with 50% matrigel. Two days later ASM-024 was administered daily by subcutaneous (at a site close to the tumor) or intraperitoneal delivery at the dose of 30 mg/kg for up to 50 days. When palpable, tumor length and width were measured with a caliper and tumor volume calculated according to the formula Volume=(width2×length)/2.
# FIGS. 6A, 6B, 7A and 7B are illustrating the antitumor effect of ASM-024 in A549 tumor cell-bearing mice after 51 days. The antitumor effect of each delivery mode was evaluated by measuring tumor volume (FIGS. 6A and 6B) and weight (FIGS. 7A and 7B). Values are presented as the mean±standard deviation.
# C6 = assay: Anti-proliferative MTT assay, C6; format: cell-based; settings: Rattus norvegicus
# Protocol: as §3
# A549 lung adenocarcinoma = assay: In vitro combination treatment with cisplatin or taxol, A549 (MTT); format: cell-based, human; settings: ASM-024 alone, 3 days of drug treatment
# Protocol: The concomitant effect of ASM-024 and cisplatin or taxol on the proliferation of A549 lung adenocarcinoma and MCF7 breast cancer adenocarcinoma cells was assessed in vitro.
# A549 cells (3.0×10^3cells/well) were first cultured with 10% FBS in F12K media and MCF7 cells (10×10^3 cells/well) with 10% FBS in EMEM media for 24 hours to allow cells to adhere to the plate at 37° C. in a humidified incubator with 5% CO2. The next day, the media was replaced in medium containing appropriate drug concentrations […] for an additional 72 hours. Cell viability was quantified using the MTT colorimetric assay (M2128, Sigma) at 575-690 nm.
# MDA-MB-231 = assay: Anti-proliferative MTT assay, MDA-MB-231; format: cell-based; settings: Homo sapiens
# Protocol: as §3
# FIGS. 5A and 5B illustrate the observed results for the MDA-MB-231 mammary/breast gland adenocarcinoma assay. Cells were incubated with the dose drug shown and growth measured at the days indicated. In FIG. 5A the data is expressed as optical density (OD) and in FIG. 5B as a percentage of the value of corresponding untreated cells. P<0.05 compared to control at same day by Student t-test
smiles,measurement,setting,value
"CC[N+]1(CC)CCCN(c2ccccc2)CC1.Cc1ccc(S(=O)(=O)[O-])cc1 [ASM-024, 1,1-Diethyl-4-phenyl-homopiperazinium Tosylate]",cell proliferation / cell growth inhibition (in words),"[1]; H82, day 3 and day 6, text on figures",dose-dependent decrease in cell proliferation
same,IC50,"[1]; NCI-H82, 72 h, H82, day 3 in culture, read-out: IC50 Day 3",314 ± 205 µM
same,IC50,"[1]; NCI-H82, 144 h, H82, day 6 in culture, read-out: IC50 Day 6",218 ± 76 µM
same,IC50,"PC3; PC-3, 72 h, PC3, day 3, read-out: IC50 Day 3",> 700 µM
same,IC50,"PC3; PC-3, 144 h, PC3, day 6, read-out: IC50 Day 6",176 ± 29 µM
same,cell proliferation / cell growth inhibition (in words),"[2]; H520, day 3 and day 6, text on figures",dose-dependent decrease in cell proliferation
same,IC50,"[2]; H520, day 3 in culture, read-out: IC50 Day 3",468 ± 287 µM
same,IC50,"[2]; H520, day 6 in culture, read-out: IC50 Day 6",257 ± 257 µM
same,IC50,"SK-BR-3; 72 h, SK-BR-3, day 3, read-out: IC50 Day 3",> 1000 µM
same,IC50,"SK-BR-3; 144 h, SK-BR-3, day 6, read-out: IC50 Day 6",197 ± 67 µM
same,A549 human carcinoma tumor growth (tumor volume),[3],decrease in A549 human carcinoma tumor growth
same,IC50,"BT-474; 72 h, BT-474, day 3, read-out: IC50 Day 3",> 1000 µM
same,IC50,"BT-474; 144 h, BT-474, day 6, read-out: IC50 Day 6",644 ± 230 µM
same,IC50,"[4]; 72 h, Calu 3, day 3 in culture, read-out: IC50 Day 3",685 ± 320 µM
same,IC50,"[4]; 144 h, Calu 3, day 6 in culture, read-out: IC50 Day 6",192 ± 217 µM
same,"Tumor growth, as determined by mean tumor volumes","A549 cells; 51 days of observation, vs control mice",reduced
same,Mean tumor weight after surgical resection,"A549 cells; after 51 days, vs vehicle-treated control mice",reduction in tumor mass
same,IC50,"C6; 72 h, C6, day 3, read-out: IC50 Day 3",353 ± 52 µM
same,IC50,"C6; 144 h, C6, day 6, read-out: IC50 Day 6",186 ± 27 µM
same,A549 cell growth inhibition,A549 lung adenocarcinoma,dose-dependent growth inhibition of cell proliferation
same,IC50,"MDA-MB-231; 72 h, MDA-MB-231, day 3, read-out: IC50 Day 3",> 1000 µM
same,IC50,"MDA-MB-231; 144 h, MDA-MB-231, day 6, read-out: IC50 Day 6",661 ± 115 µM
